According to ChEMBL document CHEMBL1201862, “PubChem BioAssay data set” (2004):
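Briefly, cells in 96-well plates were exposed to five compound concentrations for 48 h, and endpoints were estimated by linear interpolation. GI50 marks 50% less growth.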 Active and inactive are the calls of the source. Cut-off read from the data, not from the text of the source: active = GI50 up to about 1.1 µM and inactive = higher.

Tests used:
Experiment in all cases: inhibition of tumour cell growth, NCI panel, 48 h
M14 = system: M14
NCI-H226 = system: NCI-H226
EKVX = system: EKVX
SK-MEL-2 = system: SK-MEL-2
ACHN = system: ACHN
OVCAR-4 = system: OVCAR-4
SNB-75 = system: SNB-75
MDA-MB-435 = system: MDA-MB-435
LOX IMVI = system: LOX IMVI
SK-MEL-28 = system: SK-MEL-28
COLO 205 = system: COLO 205
PC-3 = system: PC-3
RPMI-8226 = system: RPMI-8226
A549 = system: A549
SR = system: SR
UO-31 = system: UO-31
786-0 = system: 786-0
MCF7 = system: MCF7
HCC 2998 = system: HCC 2998
NCI/ADR-RES = system: NCI/ADR-RES

Structure (SMILES) | GI50 (M14) | GI50 (NCI-H226) | GI50 (EKVX) | GI50 (SK-MEL-2) | GI50 (ACHN) | GI50 (OVCAR-4) | GI50 (SNB-75) | GI50 (MDA-MB-435) | GI50 (LOX IMVI) | GI50 (SK-MEL-28) | GI50 (COLO 205) | GI50 (PC-3) | GI50 (RPMI-8226) | GI50 (A549) | GI50 (SR) | GI50 (UO-31) | GI50 (786-0) | GI50 (MCF7) | GI50 (HCC 2998) | GI50 (NCI/ADR-RES)
COc1ccc(C[N+]23C(CC[C@H]2c2ccccc2)CC[C@H]3c2ccccc2)cc1 (some centres not stated) | 12.9 µM (inactive) | 14.1 µM (inactive) | 15.4 µM (inactive) | 18.5 µM (inactive) | 67.6 µM (inactive) | 13.1 µM (inactive) | 18.3 µM (inactive) | 9.84 µM (inactive) | 16.6 µM (inactive) | 20.3 µM (inactive) | 5.26 µM (inactive) | 20 µM (inactive) | 2.8 µM (inactive) | 31.3 µM (inactive) | 15.7 µM (inactive) | 31.9 µM (inactive) | 39.4 µM (inactive) | 14.7 µM (inactive) | – | –
O=C(CCc1cc(-c2ccc(F)cc2)n[nH]1)N(Cc1ccccc1)Cc1ccccc1 | > 100 µM (inactive) | > 100 µM (inactive) | > 100 µM (inactive) | > 100 µM (inactive) | > 100 µM (inactive) | – | > 100 µM (inactive) | – | > 100 µM (inactive) | > 100 µM (inactive) | > 100 µM (inactive) | – | > 100 µM (inactive) | > 100 µM (inactive) | 13.8 µM (inactive) | > 100 µM (inactive) | > 100 µM (inactive) | – | > 100 µM (inactive) | –
COC(=O)CC[N+]1([O-])CC1 | > 100 µM (inactive) | > 100 µM (inactive) | > 100 µM (inactive) | – | > 100 µM (inactive) | > 100 µM (inactive) | > 100 µM (inactive) | > 100 µM (inactive) | > 100 µM (inactive) | > 100 µM (inactive) | > 100 µM (inactive) | – | > 100 µM (inactive) | > 100 µM (inactive) | > 100 µM (inactive) | > 100 µM (inactive) | > 100 µM (inactive) | > 100 µM (inactive) | > 100 µM (inactive) | > 100 µM (inactive)
CCN(CC)CCN(C)CC(C)(C)C(=O)/C=C/c1ccccc1 | 13 µM (inactive) | 17.1 µM (inactive) | 13.1 µM (inactive) | 11.7 µM (inactive) | 12.6 µM (inactive) | 11.4 µM (inactive) | 4.36 µM (inactive) | – | 11 µM (inactive) | 16 µM (inactive) | 13.7 µM (inactive) | – | 4.15 µM (inactive) | 16.4 µM (inactive) | 10.5 µM (inactive) | 13.4 µM (inactive) | 15.8 µM (inactive) | – | 14.5 µM (inactive) | –
OC1(C(Sc2cc(C(F)(F)F)cc(C(F)(F)F)c2)Sc2cc(C(F)(F)F)cc(C(F)(F)F)c2)C=CCCC1 (configuration not stated) | 1.81 µM (inactive) | – | 2.22 µM (inactive) | – | 1.85 µM (inactive) | 1.74 µM (inactive) | 2.15 µM (inactive) | 1.86 µM (inactive) | 1.66 µM (inactive) | 2.71 µM (inactive) | 1.99 µM (inactive) | – | 1.47 µM (inactive) | 1.63 µM (inactive) | – | 1.38 µM (inactive) | 2.39 µM (inactive) | 1.49 µM (inactive) | 1.4 µM (inactive) | 2.93 µM (inactive)
Cc1cccc(Cl)c1NCC(O)CN1CCN(C)CC1 (configuration not stated) | > 100 µM (inactive) | > 100 µM (inactive) | > 100 µM (inactive) | > 100 µM (inactive) | > 100 µM (inactive) | > 100 µM (inactive) | > 100 µM (inactive) | > 100 µM (inactive) | > 100 µM (inactive) | > 100 µM (inactive) | – | > 100 µM (inactive) | – | > 100 µM (inactive) | > 100 µM (inactive) | > 100 µM (inactive) | > 100 µM (inactive) | – | > 100 µM (inactive) | > 100 µM (inactive)
NNC(=S)N/N=C/C(=C/Nc1ccccc1)[N+](=O)[O-] | > 100 µM (inactive) | > 100 µM (inactive) | > 100 µM (inactive) | > 100 µM (inactive) | > 100 µM (inactive) | > 100 µM (inactive) | > 100 µM (inactive) | – | > 100 µM (inactive) | > 100 µM (inactive) | > 100 µM (inactive) | – | > 100 µM (inactive) | > 100 µM (inactive) | 1 µM (active) | – | > 100 µM (inactive) | – | > 100 µM (inactive) | –
N#Cc1c(-c2ccc(Cl)cc2)c(C#N)c(=O)n(NS(=O)(=O)c2ccccc2)c1-c1ccccc1 | > 25 µM (inactive) | – | – | > 25 µM (inactive) | > 25 µM (inactive) | > 25 µM (inactive) | – | > 25 µM (inactive) | > 25 µM (inactive) | > 25 µM (inactive) | > 25 µM (inactive) | > 25 µM (inactive) | 17.2 µM (inactive) | > 25 µM (inactive) | – | – | > 25 µM (inactive) | 19.8 µM (inactive) | > 25 µM (inactive) | –
COc1ccc(C(C)Nc2cc(OC)c(OC)c(OC)c2)cc1 (configuration not stated) | 6.21 µM (inactive) | 14.8 µM (inactive) | > 24.9 µM (inactive) | 3.01 µM (inactive) | 8.87 µM (inactive) | 6.43 µM (inactive) | 5.75 µM (inactive) | – | 10.9 µM (inactive) | 3.24 µM (inactive) | 2.48 µM (inactive) | – | 3.86 µM (inactive) | 5.62 µM (inactive) | 3.1 µM (inactive) | 10.5 µM (inactive) | 6.65 µM (inactive) | – | 10.3 µM (inactive) | –
COc1ccc(Nc2nc3c(N)cc(C(F)(F)F)cc3nc2-c2ccccc2)cc1OC | 28.6 µM (inactive) | 24.2 µM (inactive) | 18.5 µM (inactive) | 22 µM (inactive) | 12.8 µM (inactive) | 11.9 µM (inactive) | 4.85 µM (inactive) | – | 40.6 µM (inactive) | 26.2 µM (inactive) | 55.7 µM (inactive) | – | – | 22 µM (inactive) | 92.7 µM (inactive) | 30.3 µM (inactive) | 12.4 µM (inactive) | – | 24.1 µM (inactive) | –
CNC(=S)NC(=S)N(C)C | > 100 µM (inactive) | > 100 µM (inactive) | > 100 µM (inactive) | – | > 100 µM (inactive) | > 100 µM (inactive) | > 100 µM (inactive) | – | 4.95 µM (inactive) | 6.32 µM (inactive) | – | – | 1.67 µM (inactive) | 7.67 µM (inactive) | 3.44 µM (inactive) | > 100 µM (inactive) | > 100 µM (inactive) | – | > 100 µM (inactive) | –
O=C1OCC2C1C1c3ccccc3C(O)c3ccccc3C21 (configuration not stated) | > 100 µM (inactive) | > 100 µM (inactive) | > 100 µM (inactive) | > 100 µM (inactive) | > 100 µM (inactive) | > 100 µM (inactive) | > 100 µM (inactive) | – | > 100 µM (inactive) | > 100 µM (inactive) | > 100 µM (inactive) | – | > 100 µM (inactive) | > 100 µM (inactive) | > 100 µM (inactive) | > 100 µM (inactive) | > 100 µM (inactive) | – | > 100 µM (inactive) | –
COC(=O)C(=O)C(C(=O)C(=O)Nc1cc(Cl)c(Cl)cc1Cl)c1nc2ccc([N+](=O)[O-])cc2nc1O (configuration not stated) | > 100 µM (inactive) | > 100 µM (inactive) | 48.5 µM (inactive) | > 100 µM (inactive) | > 100 µM (inactive) | > 100 µM (inactive) | – | – | > 100 µM (inactive) | > 100 µM (inactive) | > 100 µM (inactive) | – | > 100 µM (inactive) | > 100 µM (inactive) | > 100 µM (inactive) | 51.4 µM (inactive) | > 100 µM (inactive) | – | > 100 µM (inactive) | –
COc1c(C)c2c(c3c1c(=O)c1ccccc1n3C)C=CC(C)(C)O2 | 15.5 µM (inactive) | 36.7 µM (inactive) | 47.1 µM (inactive) | 25 µM (inactive) | 20.6 µM (inactive) | – | 20.4 µM (inactive) | – | 15.2 µM (inactive) | 22 µM (inactive) | 30.7 µM (inactive) | – | 9.02 µM (inactive) | 5.41 µM (inactive) | 12.5 µM (inactive) | 26.5 µM (inactive) | 23.4 µM (inactive) | – | 28.4 µM (inactive) | –
Cc1cn(C2CC(OP(=O)(O)OCC3OC(n4c[n+]([BH2-]C#N)c5c(=O)[nH]c(N)nc54)CC3O)C(CO)O2)c(=O)[nH]c1=O (configuration not stated) | > 100 µM (inactive) | > 100 µM (inactive) | > 100 µM (inactive) | > 100 µM (inactive) | > 100 µM (inactive) | > 100 µM (inactive) | > 100 µM (inactive) | – | – | – | > 100 µM (inactive) | > 100 µM (inactive) | > 100 µM (inactive) | > 100 µM (inactive) | > 100 µM (inactive) | > 100 µM (inactive) | > 100 µM (inactive) | > 100 µM (inactive) | > 100 µM (inactive) | > 100 µM (inactive)
N#C[C@](CO)(NC(=O)OCc1ccccc1)C(F)F | > 100 µM (inactive) | > 100 µM (inactive) | > 100 µM (inactive) | > 100 µM (inactive) | > 100 µM (inactive) | > 100 µM (inactive) | > 100 µM (inactive) | > 100 µM (inactive) | > 100 µM (inactive) | > 100 µM (inactive) | > 100 µM (inactive) | > 100 µM (inactive) | > 100 µM (inactive) | > 100 µM (inactive) | > 100 µM (inactive) | > 100 µM (inactive) | > 100 µM (inactive) | – | > 100 µM (inactive) | > 100 µM (inactive)
N#CCCN(CCC#N)c1ccc(C(Sc2ccccc2)C(NC(=O)c2cc([N+](=O)[O-])ccc2Cl)C(=O)Sc2ccccc2)cc1 (configuration not stated) | 3.32 µM (inactive) | 2.02 µM (inactive) | 1.34 µM (inactive) | 2.3 µM (inactive) | 3.71 µM (inactive) | 6.15 µM (inactive) | 5.41 µM (inactive) | – | 1.91 µM (inactive) | 1.96 µM (inactive) | 2.34 µM (inactive) | – | 1.77 µM (inactive) | 2.88 µM (inactive) | 1.51 µM (inactive) | 2.2 µM (inactive) | 1.89 µM (inactive) | – | 6.65 µM (inactive) | –
